Among the data in patent publication US11384078B2, “5,6-fused-bicyclic compounds and compositions for the treatment of parasitic diseases” (NOVARTIS AG, priority 2017, dated 2022) are EC50 values, retold here.

Holding throughout (type): cell-based
The subject of test [1] is Leishmania donovani axenic amastigote. Kind of test: In vitro assay for growth inhibition of Leishmania donovani axenic amastigote (Cell TiterGlo luminescence). To be noted: Leishmania donovani, L. donovani axenic amastigotes in vitro; read-out: L. donovani amastigotes EC50. The essentials: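 Compound-treated wells received 9600 axenic amastigotes in RPMI 1640-based medium at pH 5.5 (37 °C, 5% CO2). Growth measured as ATP luminescence (CellTiter-Glo) after 2-day incubation; DMSO and reference compounds served as controls.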
A general note: Cellular ATP, detected with luciferase, serves as a proxy for viable cell number.

Test [2] has as its system L. donovani HU3 strain in mouse peritoneal macrophages. Kind of test: Assay for inhibition of parasitemia of Leishmania donovani in mouse macrophages (SYBR Green nuclei count, high-content imaging). To be noted: Leishmania donovani, Peritoneal macrophage, L. donovani in mouse peritoneal macrophages; read-out: L. donovani in Mouse Macrophages EC50. The essentials:
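Parasite numbers were counted from SYBR Green-stained nuclei imaged by high-content microscopy after paraformaldehyde fixation and Triton permeabilization. Before this, compound was applied for 5 days at 37° C to BALB/c peritoneal macrophages (2×10^4/well) that had been exposed 24 h to 4×10^5 L. donovani HU3 amastigotes harvested from infected mouse spleens.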

The subject of test [3] is Trypanosoma cruzi amastigotes cultured in 3T3 fibroblast cells. Kind of test: Assay for growth inhibition of kinetoplastid parasite Trypanosoma cruzi (beta-galactosidase Tulahuen strain, CPRG readout). To be noted: Trypanosoma cruzi, Fibroblast, T. cruzi amastigotes in 3T3 fibroblast cells; read-out: Buckner infectious T. cruzi EC50. The essentials:
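3T3 fibroblasts (1,000 cells/well) plated overnight, treated with compound in DMSO, then infected with 10,000 Lac-Z-expressing Tulahuen trypomastigotes. After 6 days, 0.6 mM CPRG with 0.6% NP-40 added for 2 h at room temperature; absorbance gives relative intracellular amastigote numbers. Benznidazole and nifurtimox serve as positive controls.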

Test [4] concerns Trypanosoma brucei brucei (Lister 427) strain. Kind of test: Assay for growth inhibition against Trypanosoma brucei brucei (Cell TiterGlo ATP luminescence). To be noted: T. brucei brucei (Lister 427), read-out: T. Brucei (HAT) EC50. The essentials: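 Growth read-out is cellular ATP by CellTiter-Glo luminescence, measured 30 min after reagent addition, following 2-day incubation at 37 °C in CO2. Parasites (10,000/mL, HMI-9 plus 10% FBS and 10% serum plus) faced 10 threefold dilutions in duplicate; IC50 taken as 50% growth inhibition versus untreated.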

The structures appear in SMILES notation. Read-outs that look alike come from different tables or passages of the source.

With `CC(C)CNc1cnc2nn(-c3cc(NC(=O)N4CC(F)C4)ccc3F)cc2c1` [Compound 198, 3-fluoro-N-(4-fluoro-3-{5-[(2-methylpropyl)amino]-2H-pyrazolo[3,4-b]pyridin-2-yl}phenyl)azetidine-1-carboxamide], the EC50 came to 546 nM in test [1], 49 nM in test [2], 23 nM in test [3] and 5 nM in test [4] (Trypanosoma brucei).

For `CCNc1cnc2nn(-c3cc(NC(=O)N4CC(F)C4)ccc3F)cc2c1` [Compound 199, N-{3-[5-(ethylamino)-2H-pyrazolo[3,4-b]pyridin-2-yl]-4-fluorophenyl}-3-fluoroazetidine-1-carboxamide], the EC50 in test [1] turned out to be 502 nM; in test [2], 21 nM; in test [3], 24 nM; in test [4] (Trypanosoma brucei), 5 nM.

For `CC(C)Nc1cnc2nn(-c3cc(NC(=O)N4CC(F)C4)ccc3F)cc2c1` [Compound 200, 3-fluoro-N-(4-fluoro-3-{5-[(propan-2-yl)amino]-2H-pyrazolo[3,4-b]pyridin-2-yl}phenyl)azetidine-1-carboxamide], the EC50 in test [1] worked out at 974 nM; in test [2] it was 7 nM; in test [3], 15 nM; in test [4] (Trypanosoma brucei), 5 nM.

For the compound `O=C(Nc1ccc(F)c(-n2cc3cc(N4CC5(CCO5)C4)cnc3n2)c1)N1CC(F)C1` [Compound 201, 3-fluoro-N-[4-fluoro-3-(5-{1-oxa-6-azaspiro[3.3]heptan-6-yl}-2H-pyrazolo[3,4-b]pyridin-2-yl)phenyl]azetidine-1-carboxamide], the EC50 in test [1] is 192 nM; in test [2] it was 4 nM; in test [3], 20 nM; in test [4] (Trypanosoma brucei), 5 nM.

Regarding `O=C(Nc1ccc(F)c(-n2cc3cc(N4CC5(CCOC5)C4)cnc3n2)c1)N1CC(F)C1` [Compound 202, 3-fluoro-N-[4-fluoro-3-(5-{6-oxa-2-azaspiro[3.4]octan-2-yl}-2H-pyrazolo[3,4-b]pyridin-2-yl)phenyl]azetidine-1-carboxamide], the EC50 is 463 nM in test [1], 10 nM in test [2], 25 nM in test [3] and 5 nM in test [4] (Trypanosoma brucei).

On to `O=C(Nc1ccc(F)c(-n2cc3cc(N4CC5(CCOCC5)C4)cnc3n2)c1)N1CC(F)C1` [Compound 203, 3-fluoro-N-[4-fluoro-3-(5-{7-oxa-2-azaspiro[3.5]nonan-2-yl}-2H-pyrazolo[3,4-b]pyridin-2-yl)phenyl]azetidine-1-carboxamide], for which the concentration for a half-maximal effect (EC50) in test [1] is 490 nM; in test [2] it was 9 nM; in test [3], 20 nM; in test [4] (Trypanosoma brucei) it was 5 nM.

With `O=C(Nc1ccc(F)c(-n2cc3cc(N4CC5C(C4)C5(F)F)cnc3n2)c1)N1CC(F)C1` (stereo not drawn) [Compound 204, N-[3-(5-{6,6-difluoro-3-azabicyclo[3.1.0]hexan-3-yl}-2H-pyrazolo[3,4-b]pyridin-2-yl)-4-fluorophenyl]-3-fluoroazetidine-1-carboxamide], the EC50 stood at 74 nM in test [1], 4 nM in test [2], 2 nM in test [3] and 5 nM in test [4] (Trypanosoma brucei).

On to `COC1CN(c2cnc3nn(-c4cc(NC(=O)N5CC(F)C5)ccc4F)cc3c2)C1` [Compound 205, 3-fluoro-N-{4-fluoro-3-[5-(3-methoxyazetidin-1-yl)-2H-pyrazolo[3,4-b]pyridin-2-yl]phenyl}azetidine-1-carboxamide], for which the EC50 stood at 197 nM in test [1], 11 nM in test [2], 15 nM in test [3] and 5 nM in test [4] (Trypanosoma brucei).

For `N#Cc1ccc(C(=O)Nc2ccc(F)c(-n3cc4cc(-c5ccccn5)cnc4n3)c2)o1` [Compound 206, 5-cyano-N-{4-fluoro-3-[5-(pyridin-2-yl)-2H-pyrazolo[3,4-b]pyridin-2-yl]phenyl}furan-2-carboxamide], the EC50 in test [1] was found to be 2 nM; in test [2] it was 13 nM; in test [3], 1 nM; in test [4] (Trypanosoma brucei), 5 nM.

For the compound `CCOC1CC1C(=O)Nc1ccc(F)c(-n2cc3cc(C(C)C)cnc3n2)c1` (stereo not drawn) [Compound 207, 2-ethoxy-N-{4-fluoro-3-[5-(propan-2-yl)-2H-pyrazolo[3,4-b]pyridin-2-yl]phenyl}cyclopropane-1-carboxamide], the half-maximal effective concentration (EC50) is 1830 nM in test [1], 2060 nM in test [2], 1270 nM in test [3] and 1820 nM in test [4] (Trypanosoma brucei).

As for `CC(C)c1cnc2nn(-c3cc(NC(=O)C4CC4(F)F)ccc3F)cc2c1` (stereo not drawn) [Compound 208, 2,2-difluoro-N-{4-fluoro-3-[5-(propan-2-yl)-2H-pyrazolo[3,4-b]pyridin-2-yl]phenyl}cyclopropane-1-carboxamide], the EC50 in test [1] is 921 nM; in test [2], 1920 nM; in test [3], 358 nM; in test [4] (Trypanosoma brucei), 375 nM.

Take `CC(C)c1cnc2nn(-c3cc(NC(=O)C4(C(F)(F)F)CC4)ccc3F)cc2c1` [Compound 209, N-{4-fluoro-3-[5-(propan-2-yl)-2H-pyrazolo[3,4-b]pyridin-2-yl]phenyl}-1-(trifluoromethyl)cyclopropane-1-carboxamide]: the EC50 in test [1] came out at 25000 nM; in test [2] it was 381 nM; in test [3], 5090 nM; in test [4] (Trypanosoma brucei), 6540 nM.

For `CC(C)c1cnc2nn(-c3cc(NC(=O)C4CC4C)ccc3F)cc2c1` (stereo not drawn) [Compound 211, N-{4-fluoro-3-[5-(propan-2-yl)-2H-pyrazolo[3,4-b]pyridin-2-yl]phenyl}-2-methylcyclopropane-1-carboxamide], the EC50 was found to be 496 nM in test [1], 302 nM in test [2], 72 nM in test [3] and 35 nM in test [4] (Trypanosoma brucei).

With `CC(C)c1cnc2nn(-c3cc(NC(=O)CC(F)(F)F)ccc3F)cc2c1` [Compound 212, 3,3,3-trifluoro-N-{4-fluoro-3-[5-(propan-2-yl)-2H-pyrazolo[3,4-b]pyridin-2-yl]phenyl}propanamide], the EC50 in test [1] was 11300 nM; in test [2] it was 8860 nM; in test [3], 1750 nM; in test [4] (Trypanosoma brucei), 2030 nM.

On to `CC(C)c1cnc2nn(-c3cc(NC(=O)CCCC(F)(F)F)ccc3F)cc2c1` [Compound 214, 5,5,5-trifluoro-N-{4-fluoro-3-[5-(propan-2-yl)-2H-pyrazolo[3,4-b]pyridin-2-yl]phenyl}pentanamide], for which the EC50 in test [1] is 4600 nM; in test [2] it was 658 nM; in test [3], 1420 nM; in test [4] (Trypanosoma brucei), 1060 nM.

Take `CC(C)c1cnc2nn(-c3cc(NC(=O)CCC4CC4)ccc3F)cc2c1` [Compound 215, 3-cyclopropyl-N-{4-fluoro-3-[5-(propan-2-yl)-2H-pyrazolo[3,4-b]pyridin-2-yl]phenyl}propanamide]: the half-maximal effective concentration (EC50) in test [1] was determined as 4700 nM; in test [2], 2980 nM; in test [3], 738 nM; in test [4] (Trypanosoma brucei), 947 nM.

`CC(C)c1cnc2nn(-c3cc(NC(=O)CC4CCC4)ccc3F)cc2c1` [Compound 216, 2-cyclobutyl-N-{4-fluoro-3-[5-(propan-2-yl)-2H-pyrazolo[3,4-b]pyridin-2-yl]phenyl}acetamide]: the EC50 stood at 3700 nM in test [1], 4670 nM in test [2], 435 nM in test [3] and 620 nM in test [4] (Trypanosoma brucei).

With `O=C(Nc1ccc(F)c(-n2cc3cc(-c4ccccn4)cnc3n2)c1)C1=CCC1` [Compound 218, N-{4-fluoro-3-[5-(pyridin-2-yl)-2H-pyrazolo[3,4-b]pyridin-2-yl]phenyl}cyclobut-1-ene-1-carboxamide], the EC50 turned out to be 4 nM in test [1], 212 nM in test [2], 38 nM in test [3] and 3 nM in test [4] (Trypanosoma brucei).

In the case of `C[C@@H]1CN(c2cnc3nn(-c4cc(NC(=O)N5CC(F)C5)ccc4F)cc3c2)C[C@H](C)O1` [Compound 230, N-(3-{5-[(2R,6S)-2,6-dimethylmorpholin-4-yl]-2H-pyrazolo[3,4-b]pyridin-2-yl]-4-fluorophenyl)-3-fluoroazetidine-1-carboxamide], the EC50 in test [1] was determined as 37 nM; in test [2], 22 nM; in test [3] it was 47 nM; in test [4] it was 5 nM.

Consider `O=C(Nc1ccc(F)c(-n2cc3cc(N4CCC45COC5)cnc3n2)c1)N1CC(F)C1` [Compound 231, 3-fluoro-N-{4-fluoro-3-(5-{6-oxa-1-azaspiro[3.3]heptan-1-yl}-2H-pyrazolo[3,4-b]pyridin-2-yl)phenyl}azetidine-1-carboxamide], for which the EC50 in test [1] worked out at 34 nM; in test [2] it was 113 nM; in test [3] it was 126 nM; in test [4] it was 6 nM.

On to `COCC1CN(c2cnc3nn(-c4cc(NC(=O)N5CC(F)C5)ccc4F)cc3c2)C1` [Compound 232, 3-fluoro-N-(4-fluoro-3-{5-[3-(methoxymethyl)azetidin-1-yl]-2H-pyrazolo[3,4-b]pyridin-2-yl]phenyl)azetidine-1-carboxamide], for which the concentration giving a half-maximal response (EC50) in test [1] amounted to 12 nM; in test [2], 10 nM; in test [3] it was 12 nM; in test [4], 5 nM.

The term EC50 denotes the concentration needed to bring the measured effect to its halfway point.
